The nature of data set [1]: Inhibition of rabbit erythrocyte S-adenosylhomocysteine hydrolase. The arrangement: species or system Oryctolagus cuniculus.
For another data set, the system named is Hepatitis B virus. Kind of data set: Antiviral activity against Hepatitis B virus infected in HepG2.2.15 cells assessed as inhibition of viral-induced cytopathicity. It is filed as functional, organism-based, HepG2 2.2.15.
For another data set, the system named is Vaccinia virus. Briefly: Antiviral activity against Vaccinia virus infected in HFF cells assessed as inhibition of viral-induced cytopathicity. It is filed as functional, organism-based, Orthopoxvirus vaccinia.
The next data set relates to Ebolavirus. Briefly: Antiviral activity against Ebolavirus Zaire infected in african green monkey Vero cells assessed as inhibition of viral-induced cytopathicity. It is filed as functional, cell-based. The settings on record: Orthoebolavirus. A general note: Cytopathic effects are the visible damage that an infection or toxin causes in cultured cells.
The subject of the next data set is Human betaherpesvirus 5. Briefly: Antiviral activity against human cytomegalovirus infected in HFF cells assessed as inhibition of viral-induced cytopathicity. It is filed as functional, organism-based. As to conditions: Human betaherpesvirus 5, HFF; call rule not given here.
For another data set, the system named is Dengue virus. Kind of data set: Antiviral activity against Dengue virus infected in african green monkey Vero cells assessed as inhibition of viral-induced cytopathicity. It is filed as functional, organism-based.
Data set [2] can be described thus: Cytotoxicity against human HG23 cells. It is filed as cell-based.
The nature of data set [3]: Cytotoxicity against african green monkey Vero cells. It is filed as cell-based. The settings on record: chlorocebus sabaeus.
For the next data set, the system named is Measles morbillivirus. Briefly: Antiviral activity against Measles virus infected in african green monkey Vero cells assessed as inhibition of viral-induced cytopathicity. It is filed as functional, organism-based.
For another data set, the system named is Norovirus. Briefly: Antiviral activity against Norovirus infected in HG23 cells assessed as inhibition of viral-induced cytopathicity. The data set is classed as functional, cell-based.
Data set [4] is described as follows: Selectivity index, ratio of CC50 for human HFF cells to EC50 for human cytomegalovirus. The data set is classed as toxicity, cell-based. The settings on record: read-out: Selectivity Index.
Data set [5] in a line: Selectivity index, ratio of CC50 for human HG23 cells to EC50 for Norovirus. The data set is classed as toxicity, cell-based. As to conditions: read-out: Selectivity Index.
Data set [6] is described as follows: Selectivity index, ratio of CC50 for human HFF cells to EC50 for Vaccinia virus. The data set is classed as toxicity, cell-based. As to conditions: read-out: Selectivity Index.
Data set [7] is described as follows: Cytotoxicity against human HepG2.2.15 cells. The data set is classed as cell-based, HepG2 2.2.15.
Data set [8] can be described thus: Selectivity index, ratio of CC50 for human HG23 cells to EC90 for Norovirus. The data set is classed as toxicity, cell-based. As to conditions: read-out: Selectivity Index.
Data set [9] in a line: Selectivity index, ratio of CC50 for human HepG2.2.15 cells to EC50 for Hepatitis B virus. It is filed as toxicity. The settings on record: read-out: Selectivity Index.
Data set [10] in a line: Selectivity index, ratio of CC50 for african green monkey Vero cells to EC50 for Dengue virus. The data set is classed as toxicity, cell-based. As to conditions: read-out: Selectivity Index.
Data set [11] is described as follows: Selectivity index, ratio of CC50 for human HFF cells to EC90 for Vaccinia virus. It is filed as toxicity, cell-based. The settings on record: read-out: Selectivity Index.
A short description of data set [12]: Cytotoxicity against human HFF cells. It is filed as cell-based.
Data set [13] is described as follows: Selectivity index, ratio of CC50 for human HFF cells to EC90 for human cytomegalovirus. The data set is classed as toxicity, cell-based. As to conditions: read-out: Selectivity Index.
Data set [14] is described as follows: Selectivity index, ratio of CC50 for african green monkey Vero cells to EC50 for Measles virus. The data set is classed as toxicity, cell-based. As to conditions: read-out: Selectivity Index.
The nature of data set [15]: Selectivity index, ratio of CC50 for human HepG2.2.15 cells to EC90 for Hepatitis B virus. It is filed as toxicity. The settings on record: read-out: Selectivity Index.
Data set [16] in a line: Selectivity index, ratio of CC50 for african green monkey Vero cells to EC50 for Ebola virus Zaire virus. The data set is classed as toxicity, cell-based. As to conditions: read-out: Selectivity Index.

The source of these data is ChEMBL document CHEMBL3351357, “The enantiomers of the 1',6'-isomer of neplanocin A: synthesis and antiviral properties” (Bioorg Med Chem, 2014).

As for `Nc1ncnc2c1ncn2[C@@H]1C=C(CO)[C@@H](O)[C@H]1O` [NEOPLANOCIN A], half-maximal inhibition in data set [1] (IC50) required 0.0009 µM.
With `Nc1ncnc2c1ncn2C1=C[C@@H](CO)[C@H](O)[C@@H]1O`, the EC50 result in the data set on Hepatitis B virus (hepg2 2.2.15) is “Not Active”; in the data set with Vaccinia virus (hff) it was “Not Active”; in the data set with Ebolavirus, 0.76 µM; with Human betaherpesvirus 5, 3.7 µM; with Dengue virus, 1.3 µM; in the data set with Measles morbillivirus, 0.72 µM. Also, in the data set with Norovirus, the concentration giving a half-maximal response (EC50) amounted to 11 µM. For the same compound, the concentration for an effect of 90% (EC90) in the data set with Human betaherpesvirus 5 came to 6.86 µM; with Norovirus, 89 µM. Besides, the cytotoxic concentration (CC50) was > 300 µM in data set [2] and 11.4 µM in data set [3].
For `Nc1ncnc2c1ncn2C1=C[C@H](CO)[C@@H](O)[C@H]1O`, the EC90 in the data set on Hepatitis B virus (Hepatitis B virus, HepG2 2.2.15) was 35 µM; in the data set with Vaccinia virus (Orthopoxvirus vaccinia, HFF), > 300 µM; with Human betaherpesvirus 5 it was > 10 µM. Moreover, the concentration for a half-maximal effect (EC50) with Hepatitis B virus (Hepatitis B virus, HepG2 2.2.15, read-out: EC50) is 7.2 µM; in the data set with Vaccinia virus (Orthopoxvirus vaccinia, HFF, read-out: EC50), 10.1 µM; in the data set with Ebolavirus, 0.38 µM; with Human betaherpesvirus 5 it was 0.11 µM; in the data set with Dengue virus, 1.1 µM; with Measles morbillivirus, < 0.38 µM. The concentration for a half-maximal effect (EC50) with Norovirus was 0.784 µM. Also, the selectivity ratio in data set [4] was 448; in data set [5], > 128; in data set [6] it was > 30; in [8] it was > 11; in [9] it was > 14; in data set [10], 17. For the same compound, the selectivity ratio in data set [11] was 1; in [13], < 4; in data set [14], > 3.5; in [15], > 3; in [16], 3.5. Further, the CC50 in data set [7] is > 100 µM; in data set [12], > 49.3 µM; in [2] it was > 100 µM; in data set [3], 1.3 µM. In data set [1], this compound had a 50% inhibitory concentration (IC50) of 0.0009 µM.

By IC50 is commonly meant the point on the concentration scale where inhibition reaches its midpoint. What is called EC50 is the midpoint of the concentration-response curve. As usually defined, the EC90 is the point of the concentration-response curve where the effect stands at 90%. A word on the CC50: it is the concentration that lowers cell viability or growth by half.
